Experimental findings from patent US20230112470A1, “USE OF EGFR/HER2 TYROSINE KINASE INHIBITORS AND/OR HER2/HER3 ANTIBODIES FOR THE TREATMENT OF CANCERS WITH NRG1 FUSIONS” (Board of Regents, The University of Texas System, priority 2020, published 2023) are described below.

Like-named read-outs stand apart in the source and are kept apart here.

For this test, the system named is MDA175-VII (NRG1-DOC4 fusion) cells. In words: Cell viability by Cell Titer Glo assay, 72 hours treatment. The test is classed as cell-based. The conditions noted are these: for IC50: read-out: Average IC50. The protocol:
FIG. 1B. Representative dose response curves of MDA175-VII (NRG1-DOC4 fusion) treated with the indicated inhibitors for 72 hours. Cell viability was determined by Cell Titer Glo Assay.
Cell viability was determined by the Cell Titer Glo assay.
Drug screening and IC50 determination. Drug screening is performed as previously described. Briefly, cells are plated in 384-well plates (Greiner Bio-One) at 2000-3000 cells per well in technical triplicate. Seven different concentrations of covalent EGFR/HER2 TKIs and/or HER2/HER3 targeting antibodies or DMSO vehicle are added to reach a final volume of 40 μL per well. After 72 hours, 11 μL of Cell Titer Glo (Promega) is added to each well. Plates are incubated for a minimum of 10 minutes, and bioluminescence is determined using a FLUOstar OPTIMA plate reader (BMG LABTECH). Raw bioluminescence values are normalized to DMSO control treated cells, and values are plotted in GraphPad Prism. […] Drug screens are performed in technical triplicate on each plate and either duplicate or triplicate biological replicates.

Where [1] appears, read: MDA175-VII (NRG1-DOC4 fusion) cells, single HER2 inhibitor, 72 hours.
Setting [2] is: MDA175-VII cells, anti-HER2 antibody alone (+DMSO), 72 hours.

With `C=CC(=O)Nc1cc(Nc2nccc(-c3cn(C)c4ccccc34)n2)c(OC)cc1N(C)CCN(C)C` [Osimertinib, osimertinib], under setting [1], the IC50 is 459 nM.

In the case of T-DM1, under setting [2], the IC50 came to 653 nM.

As for `CS(=O)(=O)CCNCc1ccc(-c2ccc3ncnc(Nc4ccc(OCc5cccc(F)c5)c(Cl)c4)c3c2)o1` [Lapatinib, lapatinib], the concentration for half-maximal inhibition (IC50) under setting [1] turned out to be 98.6 nM.

On to `CCOc1cc2ncc(C#N)c(Nc3ccc(OCc4ccccn4)c(Cl)c3)c2cc1NC(=O)/C=C/CN(C)C` [Neratinib, neratinib], for which the IC50 (72 h) was 0.747 nM.

With `CNC(=O)CN1CCC(Oc2cc3c(Nc4cccc(Cl)c4F)ncnc3cc2OC)CC1` [Sapitinib, sapitinib], under setting [1], the half-inhibitory concentration (IC50) was found to be 316 nM.

In the case of “Pertuzumab: recombinant, humanized monoclonal antibody that inhibits dimerization of HER2”, under setting [2], the half-inhibitory concentration (IC50) worked out at 51.5 nM. Further, the “inhibition of cell viability (in words)” value (MDA175-VII cells, single agent) is on record as “potently inhibited cell viability”.

Turning to `CN(C)C/C=C/C(=O)Nc1cc2c(Nc3ccc(F)c(Cl)c3)ncnc2cc1O[C@H]1CCOC1` [Afatinib, afatinib], under setting [1], the half-maximal inhibitory concentration (IC50) was 0.891 nM.

`COc1cc2ncnc(Nc3ccc(F)c(Cl)c3)c2cc1NC(=O)/C=C/CN1CCCCC1` [Dacomitinib, dacomitinib]: the half-maximal inhibitory concentration (IC50) under setting [1] is 1.18 nM.

Consider `C#Cc1cccc(Nc2ncnc3cc(OCCOC)c(OCCOC)cc23)c1` [Erlotinib, erlotinib], for which, under setting [1], the 50% inhibitory concentration (IC50) was determined as 1440 nM.

Take `CCOc1cc2ncc(C#N)c(Nc3ccc(OCc4ccccn4)c(Cl)c3)c2cc1NC(=O)/C=C/[C@H]1CCCN1C` [Pyrotinib, pyrotinib]: the IC50 under setting [1] was 10.4 nM.

`C=CC(=O)N1CCC[C@@H](n2nc(-c3ccc(Oc4ccccc4)cc3)c3c(N)ncnc32)C1` [Ibrutinib, ibrutinib]: the 50% inhibitory concentration (IC50) under setting [1] came out at 86.9 nM.
